Reference: US8541585B2, “N-acyl cyclic amine derivative or pharmaceutically acceptable salt thereof” (Dainippon Sumitomo Pharma Co., Ltd., priority 2010, dated 2013)

Tests used:
human D2L receptor = human D2L receptor (Homo sapiens, UniProt P14416); test: Dopamine D2L receptor binding assay ([3H]-spiperone); conditions: 10 nM test drug; [3H]-spiperone 0.5 nM; human D2L receptor-expressing CHO cell membrane; read-out: BINDING INHIBITION RATE (%) D2L 10 nM
Experimental: (1) Dopamine D2L Receptor Binding Assay
D2L receptor binding assay was performed in reference to a method described by Hirose et al. (Japan. J. Pharmacol., 53, 321-329, 1990). After a reaction in a total volume of 200 μL of 50 mM Tris-HCl (pH=7.6) buffer solution containing 50 μL of [^3H]-spiperone (final concentration 0.5 nM), 1 μL of test drug in DMSO, and 149 μL of human D2L receptor-expressing CHO cell membrane sample, human D2L receptor binding activity of [^3H]-spiperone was measured. The reaction solution let stand for 60 minutes at room temperature, and then it was quickly added on a glass fiber filter plate (Multiscreen FB, Millipore inc.) coated with 0.3% polyethyleneimine (PEI) and filtered under reduced pressure. The glass fiber filter was washed with 200 μL of ice-cooled 50 mM Tris-HCl (pH=7.6) twice, repeatedly filtered under reduced pressure, and then transferred to a vial containing 4 mL of Ecoscint A (National Diagnostics inc.). The residual radioactivity on the glass fiber filter was measured by a liquid scintillation counter. Nonspecific binding was measured in the presence of 10 μM of spiperone, and [^3H]-spiperone binding inhibition rate in the presence of 10 nM of test drug was determined. The larger binding inhibition rate (%) means that test drug has the higher binding affinity for human D2L receptor.

human 5-HT2A receptor = molecular target: T1, human 5-HT2A receptor (Homo sapiens, UniProt P28223); test: Serotonin 5-HT2A receptor binding assay ([3H]-ketanserin); conditions: [3H]-ketanserin 1 nM, human 5-HT2A receptor-expressing CHO cell membrane; for inhibition at 0.001 µM: 1 nM test drug, read-out: BINDING INHIBITION RATE (%) 5HT2A 1 nM; for inhibition at 0.01 µM: 10 nM test drug, read-out: BINDING INHIBITION RATE (%) 5HT2A 10 nM
T1 construct: expressed in transfected cells; host or cells: CHO cells (membrane preparation)
Experimental: (2) Serotonin 5-HT2A Receptor Binding Assay
5-HT2A receptor binding assay was performed in reference to a method described by Hirose et al. (Japan. J. Pharmacol., 53, 321-329, 1990). After a reaction in a total volume of 200 μL of 50 mM Tris-HCl (pH=7.6) buffer solution containing 50 μL of [^3H]-ketanserin (final concentration 1 nM), 1 μL of test drug in DMSO, and 149 μL of human 5-HT2A receptor-expressing CHO cell membrane sample, human 5-HT2A receptor binding activity of [^3H]-ketanserin was measured. The reaction solution let stand for 15 minutes at 37° C., and then it was quickly added on a glass fiber filter plate (Multiscreen FB, Millipore inc.) coated with 0.05% Brij 35 and filtered under reduced pressure. The glass fiber filter was washed with 200 μL of ice-cooled 50 mM Tris-HCl (pH=7.6) twice, repeatedly filtered under reduced pressure, and then transferred to a vial containing 4 mL of Ecoscint A (National Diagnostics inc.). The residual radioactivity on the glass fiber filter was measured by a liquid scintillation counter. Nonspecific binding was measured in the presence of 10 μM of MDL-100907, and [^3H]-ketanserin binding inhibition rate in the presence of 1 nM or 10 nM of test drug was determined.

human 5-HT6 receptor = molecular target: T2, human 5-HT6 receptor (Homo sapiens, UniProt P50406); test: Serotonin 5-HT6 receptor binding assay ([3H]-clozapine); conditions: 100 nM test drug; [3H]-clozapine 2 nM; human 5-HT6 receptor-expressing CHO cell membrane; read-out: BINDING INHIBITION RATE (%) 5HT6 100 nM
T2 construct: expressed in transfected cells; host or cells: CHO cells (membrane preparation)
Experimental: (3) Serotonin 5-HT6 Receptor Binding Assay
After a reaction in a total volume of 200 μL of 50 mM Tris-HCl (pH=7.6), 4 mM CaCl2, and 0.5 mM EDTA buffer solution containing 50 μL of [^3H]-clozapine (final concentration 2 nM), 1 μL of test drug in DMSO, and 149 μL of human 5-HT6 receptor-expressing CHO cell membrane sample, human 5-HT6 receptor binding activity of [^3H]-clozapine was measured. The reaction solution let stand for 40 minutes at room temperature, and then it was quickly added on a glass fiber filter plate (Multiscreen FB, Millipore inc.) coated with 0.3% polyethyleneimine (PEI) and filtered under reduced pressure. The glass fiber filter was washed with 200 μL of ice-cooled 50 mM Tris-HCl (pH=7.6) twice, repeatedly filtered under reduced pressure, and then transferred to a vial containing 4 mL of Ecoscint A (National Diagnostics inc.). The residual radioactivity on the glass fiber filter was measured by a liquid scintillation counter. Nonspecific binding was measured in the presence of 10 μM of SB-258585, and [^3H]-clozapine binding inhibition rate in the presence of 100 nM of test drug was determined.

human α1D receptor = molecular target: T3, human α1D receptor (Homo sapiens, UniProt P25100); test: Adrenaline α1D receptor binding assay ([3H]-prazosin); conditions: 100 nM test drug; [3H]-prazosin 0.6 nM; human α1D receptor-expressing CHO cell membrane; read-out: BINDING INHIBITION RATE (%) α1D 100 nM
T3 construct: expressed in transfected cells; host or cells: CHO cells (membrane preparation)
T3 sequence (P25100 1-572): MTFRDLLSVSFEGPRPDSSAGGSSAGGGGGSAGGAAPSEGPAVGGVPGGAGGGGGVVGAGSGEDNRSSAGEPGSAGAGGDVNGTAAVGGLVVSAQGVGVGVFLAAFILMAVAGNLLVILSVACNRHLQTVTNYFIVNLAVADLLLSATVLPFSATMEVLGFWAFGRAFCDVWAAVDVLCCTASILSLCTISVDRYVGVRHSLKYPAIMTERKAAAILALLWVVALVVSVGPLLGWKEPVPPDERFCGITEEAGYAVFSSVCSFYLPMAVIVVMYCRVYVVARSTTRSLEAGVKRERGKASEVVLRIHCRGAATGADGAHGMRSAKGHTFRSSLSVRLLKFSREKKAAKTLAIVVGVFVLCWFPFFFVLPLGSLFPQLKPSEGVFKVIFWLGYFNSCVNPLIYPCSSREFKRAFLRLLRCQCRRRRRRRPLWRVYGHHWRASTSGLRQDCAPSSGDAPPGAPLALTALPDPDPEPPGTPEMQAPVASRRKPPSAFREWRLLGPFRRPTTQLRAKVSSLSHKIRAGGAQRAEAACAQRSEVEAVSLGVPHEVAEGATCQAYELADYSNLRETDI
Experimental: (4) Adrenaline α1D Receptor Binding Assay
After a reaction in a total volume of 200 μL of 50 mM Tris-HCl (pH=7.6) buffer solution containing 50 μL of [^3H]-prazosin (final concentration 0.6 nM), 1 μL of test drug in DMSO, and 149 μL of human α1D receptor-expressing CHO cell membrane sample, human α1D receptor binding activity of [^3H]-prazosin was measured. The reaction solution let stand for 30 minutes at room temperature, and then it was quickly added on a glass fiber filter plate (Multiscreen FB, Millipore inc.) coated with 0.3% polyethyleneimine (PEI) and filtered under reduced pressure. The glass fiber filter was washed with 200 μL of ice-cooled 50 mM Tris-HCl (pH=7.6) twice, repeatedly filtered under reduced pressure, and then transferred to a vial containing 4 mL of Ecoscint A (National Diagnostics inc.). The residual radioactivity on the glass fiber filter was measured by a liquid scintillation counter. Nonspecific binding was measured in the presence of 1 μM of prazosin, and [^3H]-prazosin binding inhibition rate in the presence of 100 nM of test drug was determined.

human D2L receptor, sequence (P14416 whole entry): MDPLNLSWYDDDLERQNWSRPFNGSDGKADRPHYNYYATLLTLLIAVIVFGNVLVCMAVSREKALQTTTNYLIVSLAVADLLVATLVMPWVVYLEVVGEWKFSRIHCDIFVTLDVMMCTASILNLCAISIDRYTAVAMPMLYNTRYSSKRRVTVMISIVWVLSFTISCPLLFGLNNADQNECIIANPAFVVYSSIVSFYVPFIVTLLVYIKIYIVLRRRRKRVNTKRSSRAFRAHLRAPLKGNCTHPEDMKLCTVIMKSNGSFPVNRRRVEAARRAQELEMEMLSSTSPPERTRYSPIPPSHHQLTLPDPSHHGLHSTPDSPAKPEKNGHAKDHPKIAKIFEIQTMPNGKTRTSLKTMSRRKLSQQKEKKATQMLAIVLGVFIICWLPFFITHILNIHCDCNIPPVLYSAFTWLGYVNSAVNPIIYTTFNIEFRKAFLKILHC
T1 sequence (P28223 whole entry): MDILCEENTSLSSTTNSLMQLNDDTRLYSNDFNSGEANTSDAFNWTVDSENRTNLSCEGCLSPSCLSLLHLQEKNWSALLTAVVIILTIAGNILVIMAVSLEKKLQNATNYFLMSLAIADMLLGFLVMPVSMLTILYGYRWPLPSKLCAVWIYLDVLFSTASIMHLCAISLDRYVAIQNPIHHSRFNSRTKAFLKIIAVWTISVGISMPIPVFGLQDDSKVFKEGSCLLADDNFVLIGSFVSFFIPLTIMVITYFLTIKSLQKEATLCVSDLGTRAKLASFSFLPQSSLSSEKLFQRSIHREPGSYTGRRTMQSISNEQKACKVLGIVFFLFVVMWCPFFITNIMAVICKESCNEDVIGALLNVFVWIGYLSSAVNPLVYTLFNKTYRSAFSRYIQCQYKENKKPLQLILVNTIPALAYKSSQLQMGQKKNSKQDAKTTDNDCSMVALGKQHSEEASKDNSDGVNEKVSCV
T2 sequence (P50406 whole entry): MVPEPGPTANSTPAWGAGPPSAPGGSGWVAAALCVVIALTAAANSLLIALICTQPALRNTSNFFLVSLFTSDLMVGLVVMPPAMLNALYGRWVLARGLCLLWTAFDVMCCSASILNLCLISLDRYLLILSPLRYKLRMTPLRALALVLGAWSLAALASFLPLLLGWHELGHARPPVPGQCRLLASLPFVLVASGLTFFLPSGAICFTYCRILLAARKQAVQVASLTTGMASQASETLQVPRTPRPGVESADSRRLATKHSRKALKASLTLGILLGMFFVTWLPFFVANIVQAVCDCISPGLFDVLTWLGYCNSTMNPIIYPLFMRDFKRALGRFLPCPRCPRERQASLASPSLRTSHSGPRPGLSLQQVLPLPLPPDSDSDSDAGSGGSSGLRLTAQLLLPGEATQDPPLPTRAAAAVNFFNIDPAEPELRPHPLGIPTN

| Compound | inhibition at 0.01 µM (human D2L receptor) [%] | inhibition at 0.001 µM (human 5-HT2A receptor) [%] | inhibition at 0.1 µM (human 5-HT6 receptor) [%] | inhibition at 0.1 µM (human α1D receptor) [%] | inhibition at 0.01 µM (human 5-HT2A receptor) [%] |
| --- | --- | --- | --- | --- | --- |
| Cc1ccc2cc(C(=O)N3CCC[C@H]3CCN3CCN(c4n[nH]c5ccccc45)CC3)[nH]c2c1 [Example 2, (S)-(2-(2-(4-(1H-Indazol-3-yl)piperazin-1-yl)ethyl)pyrrolidin-1-yl)(6-methyl-1H-indol-2-yl)methanone] | 73 | 65 | 95 | 63 | – |
| Cc1ccc2cc(C(=O)N3CCC[C@H]3CCN3CCC(N4CCc5cc(F)ccc54)CC3)[nH]c2c1 [Example 3] | 80 | 65 | 94 | 74 | – |
| O=C(/C=C/c1ccc2c(c1)OCO2)N1CCC[C@@H](CCN2CCN(c3nsc4ccccc34)CC2)C1 [Example 4, (S,E)-3-(Benzo[d][1,3]-5-dioxolyl)-1-(3-(2-(4-(benzo[d]isothiazo-3-yl)piperazin-1-yl)ethyl)piperidin-1-yl)-2-propen-1-one] | 73 | – | 65 | 30 | 96 |
| Cc1ccc2cc(C(=O)N3CCC[C@H]3CCN3CCC(c4c[nH]c5cc(F)ccc45)CC3)[nH]c2c1 [Example 5] | 83 | 72 | 98 | 70 | – |
| Cc1ccc2cc(C(=O)N3CCC[C@H]3CCN3CCC(c4noc5cc(F)ccc45)CC3)[nH]c2c1 [Example 6, (S)-(2-(2-(4-(6-Fluorobenzo[d]isoxazol-3-yl)piperidin-1-yl)ethyl)pyrrolidin-1-yl)(6-methyl-1H-indol-2-yl)methanone] | 91 | 61 | 94 | 71 | – |
| O=C(c1cc2cc(F)ccc2[nH]1)N1CCOC[C@H]1CCN1CCC(c2c[nH]c3ccccc23)CC1 [Example 7, (R)-(3-(2-(4-(1H-Indol-3-yl)piperidin-1-yl)ethyl)morpholino)(5-fluoro-1H-indol-2-yl)methanone] | 85 | – | 97 | 86 | 100 |
| Cc1ccc2[nH]c(C(=O)N3CCC[C@H]3CCN3CCC(c4coc5ccccc45)CC3)cc2c1 [Example 8, (S)-(2-(2-(4-(Benzofuran-3-yl)piperidin-1-yl)ethyl)pyrrolidin-1-yl)(5-methyl-1H-indol-2-yl)methanone] | 76 | – | 93 | 62 | 92 |
| O=C(/C=C/c1ccc2c(c1)OCO2)N1CCCC[C@H]1CCN1CCN(c2cccc3ccccc23)CC1 [Example 9] | 32 | – | 61 | 5 | 94 |
| Cc1ccc2cc(C(=O)N3CCC[C@H]3CCN3CCC(n4ccc5ccc(F)cc54)CC3)[nH]c2c1 [Example 10] | 52 | 37 | 74 | 12 | – |
